Measured values from ChEMBL document CHEMBL1201862, “PubChem BioAssay data set” (2004).
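Dose response: 5 concentrations. Exposure: 48 h. Format: 96-well plates. Endpoint: linear interpolation; highest concentration if not reached. The concentration for 50% growth inhibition is given as GI50.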 Calls of active or inactive are those of the source. Cut-off read from the data, not from the text of the source: active = GI50 up to about 1.1 µM and inactive = higher.

What was measured:
Test in all cases: inhibition of tumour cell growth, NCI panel, 48 h
HCT-116 = tested on: HCT-116
KM12 = tested on: KM12
NCI-H23 = tested on: NCI-H23
UO-31 = tested on: UO-31
OVCAR-8 = tested on: OVCAR-8
NCI-H226 = tested on: NCI-H226
M14 = tested on: M14
Malme-3M = tested on: Malme-3M
SF-268 = tested on: SF-268
NCI-H460 = tested on: NCI-H460
HOP-92 = tested on: HOP-92
A549 = tested on: A549
HT-29 = tested on: HT-29
HCC 2998 = tested on: HCC 2998
CAKI-1 = tested on: CAKI-1
MCF7 = tested on: MCF7
SNB-19 = tested on: SNB-19
COLO 205 = tested on: COLO 205
SN12C = tested on: SN12C
MDA-N = tested on: MDA-N

SMILES	GI50 (HCT-116)	GI50 (KM12)	GI50 (NCI-H23)	GI50 (UO-31)	GI50 (OVCAR-8)	GI50 (NCI-H226)	GI50 (M14)	GI50 (Malme-3M)	GI50 (SF-268)	GI50 (NCI-H460)	GI50 (HOP-92)	GI50 (A549)	GI50 (HT-29)	GI50 (HCC 2998)	GI50 (CAKI-1)	GI50 (MCF7)	GI50 (SNB-19)	GI50 (COLO 205)	GI50 (SN12C)	GI50 (MDA-N)
NS(=O)(=O)c1ccc(NC(=O)c2cccc3cc4ccccc4nc23)cc1	4.69 µM (inactive)	11.3 µM (inactive)	20.5 µM (inactive)	8.07 µM (inactive)	6.3 µM (inactive)	25.9 µM (inactive)	> 72.1 µM (inactive)	12.2 µM (inactive)	56.9 µM (inactive)	5.02 µM (inactive)	15.1 µM (inactive)	10 µM (inactive)	8.3 µM (inactive)	> 100 µM (inactive)	10.1 µM (inactive)	6.68 µM (inactive)	28.3 µM (inactive)	12.2 µM (inactive)	20.8 µM (inactive)	13 µM (inactive)
Nc1nccc(-c2c[nH]c3cc(Br)ccc23)n1 [MERIDIANIN D]	18.6 µM (inactive)	24.2 µM (inactive)	25.2 µM (inactive)	18.7 µM (inactive)	35.7 µM (inactive)	45.6 µM (inactive)	24.5 µM (inactive)	34.8 µM (inactive)	31 µM (inactive)	30 µM (inactive)	23.7 µM (inactive)	15.7 µM (inactive)	20.3 µM (inactive)	25.1 µM (inactive)	12.6 µM (inactive)	19.9 µM (inactive)	20.7 µM (inactive)	18.7 µM (inactive)	21.7 µM (inactive)	21 µM (inactive)
Nc1cc(C(=O)O)nc(O)n1	> 100 µM (inactive)	> 100 µM (inactive)	> 100 µM (inactive)	> 100 µM (inactive)	> 100 µM (inactive)	> 100 µM (inactive)	> 100 µM (inactive)	> 100 µM (inactive)	> 100 µM (inactive)	> 100 µM (inactive)	> 100 µM (inactive)	> 100 µM (inactive)	> 100 µM (inactive)	> 100 µM (inactive)	> 100 µM (inactive)	> 100 µM (inactive)	> 100 µM (inactive)	> 100 µM (inactive)	> 100 µM (inactive)	> 100 µM (inactive)
COc1nc2ccc(COc3ccc(C(=O)O)cc3)cc2nc1OC	39.9 µM (inactive)	> 100 µM (inactive)	> 100 µM (inactive)	> 100 µM (inactive)	36.4 µM (inactive)	78 µM (inactive)	66.1 µM (inactive)	> 100 µM (inactive)	82 µM (inactive)	> 100 µM (inactive)	47.5 µM (inactive)	> 100 µM (inactive)	> 100 µM (inactive)	58.2 µM (inactive)	93.3 µM (inactive)	> 100 µM (inactive)	> 100 µM (inactive)	> 100 µM (inactive)	> 100 µM (inactive)	38.2 µM (inactive)
N#C/C(=C\c1ccc(Cl)cc1)c1nc(-c2cc3ccccc3oc2=O)cs1	67.6 µM (inactive)	74.1 µM (inactive)	–	80.7 µM (inactive)	49.2 µM (inactive)	39 µM (inactive)	51.5 µM (inactive)	41.7 µM (inactive)	34.8 µM (inactive)	42.6 µM (inactive)	15.7 µM (inactive)	86.5 µM (inactive)	> 100 µM (inactive)	57.5 µM (inactive)	> 100 µM (inactive)	> 100 µM (inactive)	43.6 µM (inactive)	> 100 µM (inactive)	70.3 µM (inactive)	59.8 µM (inactive)
Clc1cc(Cl)cc(C2ON=C(c3ccccc3)N2C23CC4CC(CC(C4)C2)C3)c1 (stereo not drawn)	> 10 µM (inactive)	> 10 µM (inactive)	> 10 µM (inactive)	> 10 µM (inactive)	> 10 µM (inactive)	> 10 µM (inactive)	> 10 µM (inactive)	> 10 µM (inactive)	> 10 µM (inactive)	> 10 µM (inactive)	0.643 µM (active)	> 10 µM (inactive)	> 10 µM (inactive)	> 10 µM (inactive)	> 10 µM (inactive)	> 10 µM (inactive)	> 10 µM (inactive)	> 10 µM (inactive)	> 10 µM (inactive)	> 10 µM (inactive)
CC(C)(C)c1cc(C(P(=O)(c2ccccc2)c2ccccc2)P(=O)(c2ccccc2)c2ccccc2)cc(C(C)(C)C)c1O	1.58 µM (inactive)	1.8 µM (inactive)	2.84 µM (inactive)	2.24 µM (inactive)	2.44 µM (inactive)	3.44 µM (inactive)	1.75 µM (inactive)	2.47 µM (inactive)	2.93 µM (inactive)	2.11 µM (inactive)	2.43 µM (inactive)	2.89 µM (inactive)	2.08 µM (inactive)	1.72 µM (inactive)	3.85 µM (inactive)	2.28 µM (inactive)	3.44 µM (inactive)	1.87 µM (inactive)	3.39 µM (inactive)	1.91 µM (inactive)
CC(=O)CCC[C@@H](C)[C@@H]1O[C@H]([C@@]2(C)CCC(=O)O2)C[C@H]2C(CSc3ccccc3)C(=O)O[C@@H]12 (stereo partly drawn)	15.6 µM (inactive)	15.1 µM (inactive)	17.9 µM (inactive)	14.2 µM (inactive)	20 µM (inactive)	14.8 µM (inactive)	13.3 µM (inactive)	8.09 µM (inactive)	20 µM (inactive)	20.7 µM (inactive)	16.3 µM (inactive)	13.8 µM (inactive)	17 µM (inactive)	15.3 µM (inactive)	12.7 µM (inactive)	9.55 µM (inactive)	33.4 µM (inactive)	15.6 µM (inactive)	14.9 µM (inactive)	13.8 µM (inactive)
C=CCN1C(=O)/C(=C/c2ccc(Cl)cc2)N=C1SC/C=C/C	17 µM (inactive)	32.3 µM (inactive)	32.1 µM (inactive)	34.7 µM (inactive)	29.5 µM (inactive)	> 100 µM (inactive)	31 µM (inactive)	33.7 µM (inactive)	48.3 µM (inactive)	62.4 µM (inactive)	24.2 µM (inactive)	11.2 µM (inactive)	30.9 µM (inactive)	49.9 µM (inactive)	61.2 µM (inactive)	26.6 µM (inactive)	22.9 µM (inactive)	32.1 µM (inactive)	21.7 µM (inactive)	25.3 µM (inactive)
C[C@H](CCC(=O)O)[C@H]1CC[C@H]2[C@@H]3[C@H](O)[C@H](O)[C@@H]4C[C@H](O)CC[C@]4(C)[C@H]3CC[C@]12C [HYOCHOLIC ACID]	> 100 µM (inactive)	> 100 µM (inactive)	> 100 µM (inactive)	> 100 µM (inactive)	> 100 µM (inactive)	> 100 µM (inactive)	> 100 µM (inactive)	> 100 µM (inactive)	> 100 µM (inactive)	> 100 µM (inactive)	> 100 µM (inactive)	> 100 µM (inactive)	> 100 µM (inactive)	> 100 µM (inactive)	> 100 µM (inactive)	> 100 µM (inactive)	> 100 µM (inactive)	> 100 µM (inactive)	> 100 µM (inactive)	> 100 µM (inactive)
NC1=Nc2ccccc2Sc2nccn21	27.5 µM (inactive)	24.2 µM (inactive)	23.9 µM (inactive)	23.9 µM (inactive)	31.1 µM (inactive)	20.9 µM (inactive)	17 µM (inactive)	17.2 µM (inactive)	30.2 µM (inactive)	31 µM (inactive)	15.1 µM (inactive)	41.7 µM (inactive)	23 µM (inactive)	21 µM (inactive)	27.4 µM (inactive)	44.3 µM (inactive)	40.3 µM (inactive)	15.4 µM (inactive)	36.3 µM (inactive)	23 µM (inactive)
COc1ccc(C(=O)N2CCN(c3ccc4c(c3)OCC(=O)N4)CC2)cc1	> 100 µM (inactive)	> 100 µM (inactive)	> 100 µM (inactive)	> 100 µM (inactive)	> 100 µM (inactive)	> 100 µM (inactive)	> 100 µM (inactive)	> 100 µM (inactive)	> 100 µM (inactive)	> 100 µM (inactive)	> 100 µM (inactive)	> 100 µM (inactive)	> 100 µM (inactive)	> 100 µM (inactive)	> 100 µM (inactive)	> 100 µM (inactive)	> 100 µM (inactive)	> 100 µM (inactive)	> 100 µM (inactive)	> 100 µM (inactive)
COc1cc(Br)cc2nc(-c3cccs3)oc12	> 70.6 µM (inactive)	> 100 µM (inactive)	> 68.1 µM (inactive)	> 54.7 µM (inactive)	> 100 µM (inactive)	> 100 µM (inactive)	> 100 µM (inactive)	> 100 µM (inactive)	> 62.4 µM (inactive)	> 100 µM (inactive)	> 63.5 µM (inactive)	> 100 µM (inactive)	> 100 µM (inactive)	> 100 µM (inactive)	> 86.5 µM (inactive)	2.3 µM (inactive)	> 83 µM (inactive)	> 100 µM (inactive)	> 100 µM (inactive)	> 100 µM (inactive)
Cc1ccc(C)c(COCCOCn2cc(N3CCOCC3)c(=O)[nH]c2=O)c1	> 100 µM (inactive)	> 100 µM (inactive)	> 100 µM (inactive)	> 100 µM (inactive)	> 100 µM (inactive)	> 100 µM (inactive)	> 100 µM (inactive)	> 100 µM (inactive)	> 100 µM (inactive)	> 100 µM (inactive)	> 100 µM (inactive)	> 100 µM (inactive)	–	> 100 µM (inactive)	> 100 µM (inactive)	> 100 µM (inactive)	> 100 µM (inactive)	> 100 µM (inactive)	> 100 µM (inactive)	> 100 µM (inactive)
